From patent US20250017211A1, “SOLID P[…] CONTROL COMPOSITIONS AND METHODS” (Control Solutions, Inc., priority 2021, published 2025)

Experiments:
[1] = tested on: all white grubs (scarab larvae); assay: Preventive control of scarab larvae in Kentucky bluegrass, first study, all white grubs; assay type: in vivo, scarab beetle larvae; settings: study of Example 5
Text: The primary objectives of this study were to evaluate the influence of application rate and timing on the efficacy of novaluran applied preventively against scarab larvae in cool-season turfgrass. The experiment was located on a stand of turfgrass consisting primarily of Kentucky bluegrass maintained at 7.6 cm. Plots measuring 5×5 ft were arranged in a randomized complete-block design with 2 ft alleys between plots. […] Each treatment was replicated 4 times. Plots were irrigated Immediately after each set of applications (0.1″).
Japanese beetle larval infestations were created by driving two, 20.3 cm diameter PVC cylinders into each plot along its mid-line and caging one group of 40 Japanese beetle adults (50:50 sex ratio) within each cylinder during early July. Scarab larval populations were assessed Oct. 12-16, 2019 using a sod cutter to remove a strip of sod lying directly beneath the caging area of each plot and examining the soil to a depth of 3 inches. All scarab larvae recovered from the plots were identified to genus level, counted and recorded. Variation in scarab larval populations was examined using main effects ANOVA and treatment means were compared using Fisher's LSD test (α=0.05). Treatments and application dates were as described in Table 3.

[2] = tested on: white grubs (Japanese beetles and masked chafers); assay: Preventive control of white grubs in Kentucky bluegrass, second study; assay type: in vivo, scarab beetle larvae; settings: instant (second) study
Experimental: As with the study of Example 5 above, the purpose of this study was to evaluate rates and timings of novaluron and a wetting agent (Syringe) for controlling white grubs in turfgrass. A trial was conducted on Kentucky bluegrass maintained at a height of 7.6 cm. A randomized complete block design with 4 replications of 5′×5′ plots were used. Treatments were applied and all plots were watered in (0.1″) immediately after application. Treatments and application dates were as described in Table 4. Caged Japanese beetle adults (20 male: 20 female) were placed within each plot. Plots were assessed using a sod cutter set to 3″ depth. All scarab beetle larvae recovered were identified to genus level.

## O=C(NC(=O)c1c(F)cccc1F)Nc1ccc(OC(F)(F)C(F)OC(F)(F)F)c(Cl)c1 (stereo not shown) [Novaluron, novaluron]
[1]; 0.675 lb ai/A
  Control: 46-72%
[1]; 0.9 lb ai/A
  Control: 45-56%
[2]; 0.675 lb ai/A
  Control: 84-90%
[2]; 0.9 lb ai/A
  Control: 84-90%
